Structure (SMILES) | melting point [°C]
COc1cc(C)c(C=CC(C)=CC=CC(=O)O)c(C)c1C | 189 to 191
COC(=O)C1=C(C)NC(CC(=O)N2CCN(C3CCC4CCC3C4)CC2)=C(C(=O)OC)C1c1c(Cl)cccc1Cl (stereo not drawn) | 197 to 207
CC(=O)Nc1nc2c(Oc3cc(-c4ccc(C(F)(F)F)cc4Cl)ncn3)cccc2s1 | 263 to 264
CC(C(=O)C(N)=O)c1ccc(N2Cc3ccccc3C2=O)cc1 (stereo not drawn) | 220 to 222
CC(=O)Nc1nc2c(Oc3cc(-c4ccc(C(F)(F)F)cc4NCc4cncn4Cc4ccccc4)ncn3)cccc2s1 | 264
CCOC(=O)c1ccc(C2=NOC(c3cc(Cl)cc(Cl)c3)(C(F)(F)F)C2)cc1[N+](=O)[O-] (stereo not drawn) | 160 to 162
NC(=O)c1nn(C2OC(CO)C(O)C2O)nc1C(N)=O (stereo not drawn) | 210 to 212
CCOC(=O)C1=C(C)Nc2ccnc(OCC)c2C1c1ccccc1C(F)(F)F (stereo not drawn) | 91 to 94
FC(F)(F)c1ccc2ncc(Br)cc2c1 | 79
Cn1c(Cn2nc(CC(=O)O)c3ccccc3c2=O)nc2ccccc21 | 230
Nc1nc(N)c2cc(S(=O)(=O)c3ccc(Cl)c(Cl)c3)ccc2n1 | 286 to 289
CCOC(=O)/C=C/c1cn(-c2ccccc2)nc1OCc1ccc(OCc2nc(-c3ccccc3)oc2C)cc1 | 154 to 155
CC(=O)N1c2ccccc2-c2c([N+](=O)[O-])cnn2C1(C)C | 182 to 183
COC(=O)c1ncnn1C1OC(COC(=O)c2ccccc2)C(OC(=O)c2ccccc2)C1OC(=O)c1ccccc1 (stereo not drawn) | 122 to 124
O=CNc1cccc(-c2ccnc3c(C(=O)c4cccs4)cnn23)c1 | 233 to 236
C=C(C)Cc1c(C)c2c(c(C)c1O)CCN2C=O | 132 to 134
O=C(O)C(=O)CC(=O)c1cn(Cc2ccc(F)cc2)c2ccccc12 | 161 to 162
CC1Cn2c(=O)[nH]c3cccc(c32)CN1Cc1ccccc1 (stereo not drawn) | 205
CC(C)(C)OC(=O)N1CCN(c2ccc(N3C[C@H](CN)OC3=O)cc2F)CC1 | 184

Other lines, results leading:

melting point [°C] | Structure (SMILES)
165 to 166 | COc1cccc(-c2ccnc3c(C#N)cnn23)c1
41 to 44 | FC(F)(F)c1cccc2snnc12
108 to 110 | CCN1C(=O)c2cccnc2N(CC)c2ccccc21
82 | CCCN(C(N)=S)C(COC1CCCCO1)c1ccccc1 (stereo not drawn)
140 to 142 | O=C(CCCc1ccc(Cl)cc1)c1ccc(OCc2ccc3ccccc3n2)cc1
186 to 188 | COc1ccc2c(c1)C(c1ccncc1)Nc1cc(Cl)ccc1O2 (stereo not drawn)
141 to 143 | CC(C)(C)OC(=O)N1CCC(N2CCN(CCCN3CCCCC3)C2=C(C#N)C#N)CC1
134 to 138 | CCOC(=O)NN=C(c1ccc(Cl)cc1)c1ccc(OS(=O)(=O)c2ccc([N+](=O)[O-])cc2)cc1
117 to 119 | CC1CC(=O)c2c(ccc(F)c2Cl)N1 (single isomer, unassigned; (-))
144 to 147 | CCOCc1nc2c(N)nc3cc(-c4ccc(Cl)c(Cl)c4)cnc3c2n1CC(C)(C)O
134 to 135 | C[C@H](C#Cc1ccc(Cc2ccc3ccccc3c2)s1)N(O)C(N)=O
280 to 283 | CCOC(=O)Cc1c[nH]c2cc(C3CC3)nn2c1=O
79 to 82 | CCOC(=S)c1cc(Cl)c(C)c(-c2cc(C)no2)c1C
150 to 151 | CCN(CC)c1cccc2nc(Cc3c(Cl)cc(C(F)(F)F)cc3Cl)n(C)c12
116 to 118 | Cc1ccc(NS(=O)(=O)c2cc(S(=O)(=O)Nc3ccc(C)cc3C)c3cc(O)ccc3c2)c(C)c1
142 to 143 | CCCS(=O)(=O)c1sc(C(N)=O)c2c1-c1c(cnn1C)CC2
97 to 101 | O=[N+]([O-])c1ccc(-c2cccs2)c(-c2cccs2)c1
156 to 158 | Cc1ccc(C)n1C(C)c1nccc(I)c1F (stereo not drawn)
106 to 107 | O=C1C=CC(=O)C2=C1OCO2

Reference: a melting point compilation (Tetko et al.; mined from patent text by program, amines drawn as free bases though some values may be those of a salt)
